# In US20150352108A1, “AMINO-PYRIMIDINE COMPOUNDS AS INHIBITORS OF TBK1 AND/OR IKK EPSILON” (Alzheimer's Institute of America, priority 2009, published 2015):
# Legend:
# IKKε = target: T1, IKKε (Homo sapiens, UniProt Q14164); assay: In-vitro IKKε kinase assay ([γ33]ATP filter-plate); type: biochemical; settings: text bins; read-out: IC50 for inhibition of the kinase activity of IKKε
# T1 construct: His-tag; made in house; host or cells: Sf9 insect cells
# T1 sequence (Q14164 1-716): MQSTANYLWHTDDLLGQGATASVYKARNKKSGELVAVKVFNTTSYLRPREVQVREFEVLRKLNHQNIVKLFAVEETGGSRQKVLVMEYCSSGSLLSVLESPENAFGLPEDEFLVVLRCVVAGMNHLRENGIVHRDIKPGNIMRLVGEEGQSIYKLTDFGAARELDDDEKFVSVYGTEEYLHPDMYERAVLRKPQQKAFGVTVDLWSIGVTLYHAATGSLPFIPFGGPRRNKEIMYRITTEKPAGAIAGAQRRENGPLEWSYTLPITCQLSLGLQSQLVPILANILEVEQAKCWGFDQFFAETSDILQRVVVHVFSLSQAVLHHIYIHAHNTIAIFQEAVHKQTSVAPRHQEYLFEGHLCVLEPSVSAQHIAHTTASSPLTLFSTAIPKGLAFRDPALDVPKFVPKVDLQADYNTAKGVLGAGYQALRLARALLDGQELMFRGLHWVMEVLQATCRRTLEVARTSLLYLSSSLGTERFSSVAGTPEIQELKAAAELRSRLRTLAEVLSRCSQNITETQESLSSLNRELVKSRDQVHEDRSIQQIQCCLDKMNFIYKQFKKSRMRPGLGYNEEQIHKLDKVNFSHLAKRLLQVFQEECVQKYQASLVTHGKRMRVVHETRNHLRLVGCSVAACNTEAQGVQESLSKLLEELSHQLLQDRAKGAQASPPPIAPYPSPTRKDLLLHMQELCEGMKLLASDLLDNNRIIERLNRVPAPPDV
# In short: (§1)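 His-tagged IKKε and TBK1 from Sf9 cells were assayed with myelin basic protein or casein and [γ33]ATP at 2×Km ATP (32 μM for IKKε, 60 μM for TBK1). Enzyme was 0.1 or 0.015 μg/ml for IKKε and 0.1 or 0.02 μg/ml for TBK1 (normal/sensitized). Reactions ran 30-45 min, were filter-captured, scintillation-counted, and normalized to DMSO after background subtraction.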
# TBK1 = target: T2, TBK1 (Homo sapiens, UniProt Q9UHD2); assay: In-vitro TBK1 kinase assay ([γ33]ATP filter-plate); type: biochemical; settings: text bins; read-out: IC50 for inhibition of the kinase activity of TBK1
# T2 construct: His-tag; made in house; host or cells: Sf9 insect cells
# T2 sequence (Q9UHD2 1-729): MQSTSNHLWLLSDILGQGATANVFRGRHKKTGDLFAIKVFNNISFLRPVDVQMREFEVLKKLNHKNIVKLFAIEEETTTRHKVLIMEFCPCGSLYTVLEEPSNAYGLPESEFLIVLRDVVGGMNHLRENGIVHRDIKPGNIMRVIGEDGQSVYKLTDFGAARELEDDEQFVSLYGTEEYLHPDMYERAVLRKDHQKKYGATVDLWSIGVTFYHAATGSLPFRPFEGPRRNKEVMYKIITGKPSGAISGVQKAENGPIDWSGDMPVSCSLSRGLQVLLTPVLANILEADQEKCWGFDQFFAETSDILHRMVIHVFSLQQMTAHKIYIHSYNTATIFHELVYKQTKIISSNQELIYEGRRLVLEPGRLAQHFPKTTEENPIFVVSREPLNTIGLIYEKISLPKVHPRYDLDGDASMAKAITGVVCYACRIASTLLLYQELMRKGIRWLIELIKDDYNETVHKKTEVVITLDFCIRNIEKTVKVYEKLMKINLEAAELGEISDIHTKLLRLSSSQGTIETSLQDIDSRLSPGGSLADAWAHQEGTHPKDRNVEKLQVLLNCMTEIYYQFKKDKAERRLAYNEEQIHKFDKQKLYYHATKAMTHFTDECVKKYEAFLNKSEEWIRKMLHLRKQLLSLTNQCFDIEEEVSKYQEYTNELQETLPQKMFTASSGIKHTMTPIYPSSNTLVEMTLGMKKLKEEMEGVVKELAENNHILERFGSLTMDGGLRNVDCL
# In short: as §1
# [1] = system: IKKε-mediated phosphorylation of IRF3; assay: In-situ phosphorylation of IRF3 (pIRF3 Ser396 ELISA) in HEK293T cells cotransfected with IRF3 and IKKε; type: cell-based; settings: Homo sapiens, HEK-293T; HEK293T cells, 20 hours, text bins; read-out: IC50 for inhibition of the in-situ IKKε-mediated phosphorylation of IRF3
# In short: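 For the IRF3 ELISA, HEK293T cells cotransfected with IRF3 and IKKε were replated at 20,000/well and treated 20 h. Phospho-Ser396 IRF3 was measured by ELISA and normalised to DMSO, with viability checked by CellTiter-Glo. For IRF7, cells transfected with IRF7 and TBK1 were treated overnight, and pSer477/Ser479 IRF7 was detected by Western blot.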
# [2] = system: RANTES secretion, RAW264.7 cells; assay: RANTES secretion by RAW264.7 cells after nucleic acid agonists (ELISA); type: cell-based, Mouse; settings: 100 nM
# Excerpt: (§2) Mouse RAW264.7 macrophage-like cells provide a model for macrophage function in tissue culture. To investigate the efficacy of compounds according to Formula I in inhibiting nucleic acid cytosolic receptor pathways RAW264.7 cells were pretreated with a compound according to Formula I (Example Compound 471) and then exposed to various single stranded and double stranded RNA and DNA agonists introduced into the cell. To track IKKε/TBK1 signaling pathway activation, RANTES or IFN-β protein secretion was monitored by ELISA-based assays (R & D systems), such as those described above.
# RAW264.7 cells were seeded in 96-well culture plates and allowed to grow overnight. The following day, media was replaced and cells were pretreated with 100 nM Example Compound 471 (0.1% final DMSO concentration). After one hour cells were transfected with Lipofectime LTX reagent (Invitrogen, Carlsbad, Calif.) and one of the following agonists: low molecular weight Poly(I:C) (InvivoGen, San Diego, Calif.) at 10 μg/ml to activate RIG-I; high molecular weight Poly(I:C) (InvivoGen, San Diego, Calif.) at 10 μg/ml to activate MDA5; Poly(dA:dT) (InvivoGen, San Diego, Calif.) at 1 ug/ml; 45-basepair double stranded interferon stimulatory DNA oligo (ISD) at 10 μg/ml (Stetson and Medzhitov; Recognition of cytosolic DNA activates an IRF3-dependent innate immune response; Immunity, 24:93-103, 2006); ssDNA at 10 μg/ml (InvivoGen, San Diego, Calif.), ssRNA at 0.5 μg/ml (InvivoGen, San Diego, Calif.), or salmon sperm genomic DNA (gDNA) (InvivoGen, San Diego, Calif.) at 10 ug/ml to activate DAI, IFI16, and other cytosolic nucleic acid receptors. RANTES (FIG. 5) and IFN-β (FIG. 6) secretion were quantified using ELISA kits (Mouse CCL5/RANTES, R&D Systems, Inc., Minneapolis, Minn. and Mouse IFN-β, Thermo Fisher Scientific, Rockford, Ill.).
# [3] = system: IFN-β secretion, RAW264.7 cells; assay: IFN-β secretion by RAW264.7 cells after nucleic acid agonists (ELISA); type: cell-based, Mouse; settings: 100 nM
# Excerpt: as §2
# RAW264.7 cells were seeded in 96-well culture plates and allowed to grow overnight. The following day, media was replaced and cells were pretreated with 100 nM Example Compound 471 (0.1% final DMSO concentration). […] RANTES (FIG. 5) and IFN-β (FIG. 6) secretion were quantified using ELISA kits (Mouse CCL5/RANTES, R&D Systems, Inc., Minneapolis, Minn. and Mouse IFN-β, Thermo Fisher Scientific, Rockford, Ill.).
smiles,measurement,setting,value
"N#Cc1cc(-c2ccnc(Nc3ccc(N4CCOCC4)cc3)n2)ccc1O[C@@H]1CCN(C(=O)CO)C1 [compound 471, 2-{[(3R)-1-(hydroxyacetyl)pyrrolidin-3-yl]oxy}-5-(2-{[4-(morpholin-4-yl)phenyl]amino}pyrimidin-4-yl)benzonitrile]",IC50,IKKε,< 5 nM
same,IC50,TBK1,< 10 nM
same,IC50,[1],< 100 nM
same,"induction of RANTES secretion by DNA agonists ISD, ssDNA, poly(dA:dT), gDNA",[2],potently inhibited
same,induction of RANTES secretion by low and high molecular weight poly(I:C),[2],modestly inhibited
same,induction of RANTES secretion by ssRNA agonist,[2],potently inhibited
same,"induction of IFN-β secretion by DNA agonists ISD, ssDNA, poly(dA:dT), gDNA",[3],potently inhibited
same,induction of IFN-β secretion by low and high molecular weight poly(I:C),[3],modestly inhibited
